According to US20250325676A1, “CAMPTOTHECIN PRODRUG AND PHARMACEUTICAL COMPOSITION THEREOF” (TIANJIN HEMAY ONCOLOGY PHARMACEUTICAL CO., LTD, priority 2022, published 2025):
Where two headings read alike, the source gives them in different places.

Legend:
[1] = test system: HCT116; experiment: In vitro inhibition of human tumor cells, HCT116, MTT method; assay type: cell-based
Method: (§1) The cells were allowed to adhere overnight.
(§2) Adherent cells: Culture medium was aspirated and 100 μl/wells of basal culture (generally refers to medium without fetal bovine serum (FBS) and other additives) containing 0.5 mg/ml MTT were added. The cells were cultured for 3 hours. MTT-containing basal medium was aspirated and 100 μl/wells of DMSO were added to dissolve formazan.
(§3) Unstably adherent cells: Unstably adherent cells were directly added to the MTT solution to achieve the concentration of 0.5 mg/ml and cultured for 3 hours. The ternary solution in an equal volume to the system was added to the system to dissolve the formazan.
(§4) The DMSO concentration was 0.1%.

[2] = test system: SW620; experiment: In vitro inhibition of human tumor cells, SW620, SRB method; assay type: cell-based
From the text: as §1
(§5) Trichloroacetic acid was removed. […] Excess SRB was removed.
as §4

[3] = test system: LoVo; experiment: In vitro inhibition of human tumor cells, LoVo, SRB method; assay type: cell-based
From the text: as §1, §5, §4

[4] = test system: NCI-N87; experiment: In vitro inhibition of human tumor cells, NCI-N87, MTT method; assay type: cell-based
[5] = test system: BxPC-3; experiment: In vitro inhibition of human tumor cells, BxPC-3, MTT method; assay type: cell-based
Method: as §1, §2, §3, §4

[6] = test system: NCI-H460; experiment: In vitro inhibition of human tumor cells, NCI-H460, MTT method; assay type: cell-based
Method: as §1, §2, §3, §4

[7] = test system: Fadu; experiment: In vitro inhibition of human tumor cells, Fadu, MTT method; assay type: cell-based
[8] = test system: human colon cancer HCT116; experiment: Growth of human colon cancer HCT116 in allogeneic transplantation model; assay type: in vivo, nude mice
[9] = test system: human small cell lung cancer NCI-H446; conditions: 20 mg/kg i.v. qw × 2; NCI-H446 model
[10] = test system: A375; experiment: In vitro inhibition of human tumor cells, A375, SRB method
[11] = test system: 22RV1; experiment: In vitro inhibition of human tumor cells, 22RV1, SRB method
[12] = test system: BEL-7404; experiment: In vitro inhibition of human tumor cells, BEL-7404, SRB method
[13] = test system: MDA-MB-468; experiment: In vitro inhibition of human tumor cells, MDA-MB-468, SRB method
[14] = test system: human pancreatic cancer BxPC-3; experiment: Growth of human pancreatic cancer BxPC-3 in allogeneic transplantation model; assay type: in vivo, nude mice; conditions: BxPC-3 model
[15] = test system: human gastric cancer NCI-N87; experiment: Growth of human gastric cancer NCI-N87 in allogeneic transplantation model; assay type: in vivo, nude mice; conditions: for Relative volume RTV (X ± S.D.) / T/C (%) / Tumor inhibition rate (%) / Tumor weight (g, X ± S.D.): 20 mg/kg i.v. qw × 2
Method: The tumor volume was measured 2 to 3 times per week. […] The subcutaneous tumors were peeled and weighed.
The calculation formula of the tumor volume: Volume=0.5×long diameter×short diameter×short diameter.

[16] = test system: human pancreatic cancer BxPC-3; conditions: 30 mg/kg i.v. qw × 2
[17] = test system: human colon cancer LoVo; conditions: 30 mg/kg i.v. qw × 2; LoVo model
[18] = test system: human colon cancer SW620; conditions: 30 mg/kg i.v. qw × 2; SW620 model
[19] = test system: human colon cancer HCT116; conditions: 30 mg/kg i.v. qw × 2; HCT116 large tumor after irinotecan
From the text: When the tumor volume was more than 600 mm^3 and stable growth was maintained, the experimental animals were randomly divided by the remainder method and administered according to the size of the tumor volume. […] The subcutaneous tumors were stripped and weighed.
T was the subject and C is the model control.
Tumor volume growth was observed on a regular basis after completion of dosing.

[20] = No βGU (direct effects of compound on cells)
[21] = BxPC-3 large tumors after irinotecan

| Molecule | IC50 ([1]; Adding βGU (β-glucuronidase)) [nM] | IC50 [1, 20] [nM] | IC50 ([2]; Adding βGU) [nM] | IC50 ([2]; No βGU) [nM] | IC50 ([3]; Adding βGU) [nM] | IC50 ([3]; No βGU) [nM] | IC50 ([4]; Adding βGU) [nM] | IC50 ([4]; No βGU) [nM] | IC50 ([5]; Adding βGU) [nM] | IC50 ([5]; No βGU) [nM] | IC50 ([6]; Adding βGU) [nM] | IC50 ([6]; No βGU) [nM] | IC50 ([7]; Adding βGU) [nM] | IC50 ([7]; No βGU) [nM] | T/C (%) ([8]; 10 mg/kg i.v. qw × 2) | Tumor inhibition rate (%) ([8]; 10 mg/kg i.v. qw × 2) | IC50 ([10]; Adding βGU) [nM] | IC50 ([10]; No βGU) [nM] | IC50 ([13]; Adding βGU) [nM] | IC50 ([13]; No βGU) [nM] | also measured |
| --- | --- | --- | --- | --- | --- | --- | --- | --- | --- | --- | --- | --- | --- | --- | --- | --- | --- | --- | --- | --- | --- |
| (2S,3S,4S,5R,6S)-6-(3-((1-(2-(2-(2-((4′-((E)-(8-amino-1-hydroxy-5,7-disulfononaphthalen-2-yl)diazenyl)-3,3′-dimethoxy-[1,1′-biphenyl]-4-yl)amino)-2-oxoethoxy)ethoxy)ethyl)-1H-1,2,3-triazol-4-yl)methoxy)-4-(((S)-4,11-diethyl-4-hydroxy-3,14-dioxo-3,4,12,14-tetrahydro-1H-pyrano[3′,4′:6,7]indolazino[1,2-b]quinolin-9-yl)oxy)methyl)phenoxy)-3,4,5-trihydroxytetrahydro-2H-pyran-2-carboxylate trisodium [Example 61] | 5.4 | 220 | 2.6 | 283 | 5.9 | 244 | 33 | 395 | 7.1 | 915 | 8.6 | 518 | 15 | 498 | 27.2 | 76.8 | 12.5 | 782 | 6.5 | 212 | Relative volume RTV (X ± S.D.) [9]: 0.25 ± 0.25; T/C (%) [9]: 3.7%; Tumor inhibition rate (%) [9]: 96.0%; Tumor weight (g, X ± S.D.) [9]: 0.039 ± 0.049 g; IC50 ([11]; Adding βGU): 8.4 nM; IC50 ([11]; No βGU): 225 nM; IC50 ([12]; Adding βGU): 40 nM; IC50 ([12]; No βGU): 565 nM |
| CCc1c2c(nc3ccc(OC(=O)N4CCC(N5CCCCC5)CC4)cc13)-c1cc3c(c(=O)n1C2)COC(=O)[C@]3(O)CC [irinotecan, reference compound] |  |  |  |  |  |  |  |  |  |  |  |  |  |  |  |  |  |  |  |  | Tumor inhibition rate (%) ([8]; 100 mg/kg i.p. qw × 2): 71.6%; Final body weight change (%) ([8]; 100 mg/kg i.p. qw × 2, nude mouse): −10.5%; Final body weight change (%) ([14]; 100 mg/kg i.p. qw × 2, d 17 data): 6.4% |
| (2S,3S,4S,5R,6S)-6-(3-((1-(5-((4′-((E)-(8-amino-1-hydroxy-5,7-disulfonicnaphthalen-2-yl)diazenyl)-3,3′-dimethyl-[1,1′-biphenyl]-4-yl)amino)-5-oxopentyl)-1H-1,2,3-triazol-4-yl)methoxy)-4-((((S)-4,11-diethyl-4-hydroxy-3,14-dioxy-3,4,12,14-tetrahydro-1H-pyrano[3′,4′:6,7]indolazino[1,2-b]quinolin-9-yl)oxy)methyl)phenoxy)-3,4,5-trihydroxytetrahydro-2H-pyran-2-carboxylate trisodium [Example 85] |  |  |  |  |  |  | 31 | 178 |  |  |  |  | 15 | 706 |  |  | 19 | 864 | 9.7 | 71 | Relative volume RTV (X ± S.D.) ([14]; 25 mg/kg i.v. qw × 2): 0.23 ± 0.05; T/C (%) ([14]; 25 mg/kg i.v. qw × 2): 4.8%; Tumor inhibition rate (%) ([14]; 25 mg/kg i.v. qw × 2): 97.2%; Tumor weight (g, X ± S.D.) ([14]; 25 mg/kg i.v. qw × 2): 0.047 ± 0.027 g; Final body weight change (%) ([14]; 25 mg/kg i.v. qw × 2, nude mouse): 4.0%; Relative volume RTV (X ± S.D.) [15]: 0.67 ± 0.24; T/C (%) [15]: 13.0%; Tumor inhibition rate (%) [15]: 93.6%; Tumor weight (g, X ± S.D.) [15]: 0.076 ± 0.014 g; Final body weight change (%) ([15]; 20 mg/kg i.v. qw × 2, nude mouse): 10.0%; Relative volume RTV (X ± S.D.) [16, 21]: 0.48 ± 0.11; T/C (%) [16, 21]: 13.7%; Tumor inhibition rate (%) [16, 21]: 90.0%; Tumor weight (g, X ± S.D.) [16, 21]: 0.301 ± 0.051 g; Final body weight change (%) ([16]; BxPC-3 tumors more than 600 mm^3 after irinotecan 100 mg/kg i.p. qw × 2): 0.4%; IC50 ([11]; Adding βGU): 9 nM; IC50 ([11]; No βGU): 248 nM; IC50 ([12]; Adding βGU): 50 nM; IC50 ([12]; No βGU): 721 nM |
| (2S,3S,4S,5R,6S)-6-(3-((1-(2-(2-(2-((4′-((E)-(8-amino-1-hydroxy-5,7-disulfonicnaphthalen-2-yl)diazenyl)-3,3′-dimethyl-[1,1′-biphenyl]-4-yl)amino)-2-oxoethoxy)ethoxy)ethyl)-1H-1,2,3-triazol-4-yl)methoxy)-4-(((S)-4,11-diethyl-4-hydroxy-3,14-dioxo-3,4,12,14-tetrahydro-1H-pyrano[3′,4′:6,7]indolazino[1,2-b]quinolin-9-yl)oxy)methyl)phe noxy)-3,4,5-trihydroxytetrahydro-2H-pyran-2-carboxylate trisodium [Example 54] | 13 | 259 | 15 | 549 | 9.3 | 275 | 38 |  | 8.8 | 638 | 11 | 360 |  |  | 27.0 | 74.4 |  |  | 6.8 | 217 | inhibition rate at 2 μM ([4]; No βGU, 2 μM): 2 μM about 46.1%; Relative volume RTV (X ± S.D.) [9]: 0.61 ± 0.48; T/C (%) [9]: 8.9%; Tumor inhibition rate (%) [9]: 90.5%; Tumor weight (g, X ± S.D.) [9]: 0.093 ± 0.080 g |
| 4-amino-6-((E)-(4′-(6-(4-((2-(((S)-4,11-diethyl-4-hydroxy-3,14-dioxy-3,4,12,14-tetrahydro-1H-pyrano[3′,4′:6,7]indolazo[1,2-b]quinolin-9-yl)oxy)methyl)-5-(((2S,3R,4S,5 S,6S)-3,4,5-trihydroxy-6-(methoxycarbonyl)tetrahydro-2H-pyran-2-yl)oxy)phenoxy)methyl)-1H-1,2,3-triazol-1-yl)hexanamido)-3,3′-dimethyl-[1,1′-biphenyl]-4-yl)diazenyl)-5-hydroxynaphthalene-1,3-disulfonate disodium [Example 21] | 35 | 244 | 23 | 764 | 45 | 720 |  |  | 62 | 688 | 80 | 770 | 9.8 | 298 |  |  | 8.8 | 556 | 42 | 177 | T/C (%) [17]: 9.8%; Tumor inhibition rate (%) [17]: 93.1%; T/C (%) [18]: 0.5%; Tumor inhibition rate (%) [18]: 99.8%; IC50 ([11]; Adding βGU): 14.5 nM; IC50 ([11]; No βGU): 399 nM; IC50 ([12]; Adding βGU): 28 nM; IC50 ([12]; No βGU): 439 nM |
| (2S,3S,4S,5R,6S)-6-(3-((1-(2-((4′-((E)-(8-amino-1-hydroxy-5,7-disulfonicnaphthalen-2-yl)diazenyl)-3,3′-dimethyl-[1,1′-biphenyl]-4-yl)amino)-2-oxoethyl)-1H-1,2,3-triazol-4-yl)methoxy)-4-((((S)-4,11-diethyl-4-hydroxy-3,14-dioxy-3,4,12,14-tetrahydro-1H-pyrano[3′,4′:6,7]indolazino[1,2-b]quinolin-9-yl)oxy)methyl)phenoxy)-3,4,5-trihydroxytetrahydro-2H-pyran-2-carboxylate trisodium [Example 90] |  |  |  |  |  |  | 23 | 839 |  |  |  |  |  |  | 23.7 | 81.7 |  |  | 4.3 | 79 | Relative volume RTV (X ± S.D.) [15]: 1.30 ± 0.36; T/C (%) [15]: 25.3%; Tumor inhibition rate (%) [15]: 83.5%; Tumor weight (g, X ± S.D.) [15]: 0.197 ± 0.085 g; Relative volume RTV (X ± S.D.) [19]: 0.89 ± 0.10; T/C (%) [19]: 23.9%; Tumor inhibition rate (%) [19]: 77.0%; Tumor weight (g, X ± S.D.) [19]: 0.627 ± 0.408 g |
